Results: PubChem BioAssay AID2060912 (Molecular Pharmacology Branch, DTP, NCI, 2025)

System: HUVEC/MSC spheroids viability
Test: Human HUVEC/MSC cell line growth inhibition [KRAS2];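 as to viability, T/C: percent of DMSO vehicle control luminescence so 100% = untreated viability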
Settings: for IC50: curve of first compound; for viability, T/C: stronger effect = lower value
In short: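 HUVEC + hMSC stromal spheroids only, no malignant cells; 37 °C, 5% CO2. Drugs singly and in pairs, half-log series down from clinical Cmax (max 10 microM if Cmax undetermined).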

[1] = second compound 0.0316 µM, first compound 0.0316 µM
[2] = second compound 0.0316 µM, first compound 0.1 µM
[3] = second compound 0.1 µM, first compound 0.0316 µM
[4] = second compound 0.1 µM, first compound 0.1 µM
[5] = second compound 0.316 µM, first compound 0.0316 µM
[6] = second compound 0.316 µM, first compound 0.1 µM
[7] = second compound 1 µM, first compound 0.0316 µM
[8] = second compound 1 µM, first compound 0.1 µM
[9] = second compound 3.16 µM, first compound 0.0316 µM
[10] = second compound 3.16 µM, first compound 0.1 µM
[11] = second compound 10 µM, first compound 0.0316 µM
[12] = second compound 10 µM, first compound 0.1 µM

## CC(=O)OC12COC1CC(O)C1(C)C(=O)C(O)C3=C(C)C(OC(=O)C(O)C(NC(=O)OC(C)(C)C)c4ccccc4)CC(O)(C(OC(=O)c4ccccc4)C21)C3(C)C (stereo unspecified) + COc1cc2nc(C)nc(NC(C)c3cc(N)cc(C(F)(F)F)c3)c2cc1OC1CCOC1
Second compound 0.0316 µM
  IC50: < 9.49 nM
Second compound 0.1 µM
  IC50: > 3000 nM
Second compound 0.316 µM
  IC50: < 9.49 nM
Second compound 1 µM
  IC50: < 9.49 nM
Second compound 3.16 µM
  IC50: > 3000 nM
Second compound 10 µM
  IC50: 2770 nM
Second compound 0.0316 µM, first compound 0.00949 µM
  viability, T/C: 47.1%
Second compound 0.0316 µM, first compound 0.03 µM
  viability, T/C: 55.3%
Second compound 0.0316 µM, first compound 0.0949 µM
  viability, T/C: 53%
Second compound 0.0316 µM, first compound 0.3 µM
  viability, T/C: 36.7%
Second compound 0.0316 µM, first compound 0.949 µM
  viability, T/C: 51.9%
Second compound 0.0316 µM, first compound 3 µM
  viability, T/C: 60.4%
Second compound 0.1 µM, first compound 0.00949 µM
  viability, T/C: 50.7%
Second compound 0.1 µM, first compound 0.03 µM
  viability, T/C: 57%
Second compound 0.1 µM, first compound 0.0949 µM
  viability, T/C: 54%
Second compound 0.1 µM, first compound 0.3 µM
  viability, T/C: 44%
Second compound 0.1 µM, first compound 0.949 µM
  viability, T/C: 54.7%
Second compound 0.1 µM, first compound 3 µM
  viability, T/C: 61.5%
Second compound 0.316 µM, first compound 0.00949 µM
  viability, T/C: 45.5%
Second compound 0.316 µM, first compound 0.03 µM
  viability, T/C: 44.4%
Second compound 0.316 µM, first compound 0.0949 µM
  viability, T/C: 44.8%
Second compound 0.316 µM, first compound 0.3 µM
  viability, T/C: 49.3%
Second compound 0.316 µM, first compound 0.949 µM
  viability, T/C: 47.5%
Second compound 0.316 µM, first compound 3 µM
  viability, T/C: 57.1%
Second compound 1 µM, first compound 0.00949 µM
  viability, T/C: 45.5%
Second compound 1 µM, first compound 0.03 µM
  viability, T/C: 47.8%
Second compound 1 µM, first compound 0.0949 µM
  viability, T/C: 37.2%
Second compound 1 µM, first compound 0.3 µM
  viability, T/C: 57.1%
Second compound 1 µM, first compound 0.949 µM
  viability, T/C: 63.6%
Second compound 1 µM, first compound 3 µM
  viability, T/C: 47.9%
Second compound 3.16 µM, first compound 0.00949 µM
  viability, T/C: 51.5%
Second compound 3.16 µM, first compound 0.03 µM
  viability, T/C: 48.3%
Second compound 3.16 µM, first compound 0.0949 µM
  viability, T/C: 58.6%
Second compound 3.16 µM, first compound 0.3 µM
  viability, T/C: 48.1%
Second compound 3.16 µM, first compound 0.949 µM
  viability, T/C: 58.3%
Second compound 3.16 µM, first compound 3 µM
  viability, T/C: 50.6%
Second compound 10 µM, first compound 0.00949 µM
  viability, T/C: 52.4%
Second compound 10 µM, first compound 0.03 µM
  viability, T/C: 71.7%
Second compound 10 µM, first compound 0.0949 µM
  viability, T/C: 59.2%
Second compound 10 µM, first compound 0.3 µM
  viability, T/C: 58.1%
Second compound 10 µM, first compound 0.949 µM
  viability, T/C: 59.8%
Second compound 10 µM, first compound 3 µM
  viability, T/C: 49.3%

## CN(C)C/C=C/C(=O)Nc1cc2c(Nc3ccc(F)c(Cl)c3)ncnc2cc1O[C@H]1CCOC1 + COc1cc2nc(C)nc(NC(C)c3cc(N)cc(C(F)(F)F)c3)c2cc1OC1CCOC1
Second compound 0.0316 µM
  IC50: > 100 nM
Second compound 0.1 µM
  IC50: > 100 nM
Second compound 0.316 µM
  IC50: > 100 nM
Second compound 1 µM
  IC50: > 100 nM
Second compound 3.16 µM
  IC50: > 100 nM
Second compound 10 µM
  IC50: > 100 nM
Second compound 0.0316 µM, first compound 0.000316 µM
  viability, T/C: 98.6%
Second compound 0.0316 µM, first compound 0.001 µM
  viability, T/C: 110%
Second compound 0.0316 µM, first compound 0.00316 µM
  viability, T/C: 104%
Second compound 0.0316 µM, first compound 0.01 µM
  viability, T/C: 92.8%
[1]
  viability, T/C: 86.8%
[2]
  viability, T/C: 107%
Second compound 0.1 µM, first compound 0.000316 µM
  viability, T/C: 96.3%
Second compound 0.1 µM, first compound 0.001 µM
  viability, T/C: 90.2%
Second compound 0.1 µM, first compound 0.00316 µM
  viability, T/C: 96.8%
Second compound 0.1 µM, first compound 0.01 µM
  viability, T/C: 73.7%
[3]
  viability, T/C: 90.5%
[4]
  viability, T/C: 85.1%
Second compound 0.316 µM, first compound 0.000316 µM
  viability, T/C: 132%
Second compound 0.316 µM, first compound 0.001 µM
  viability, T/C: 102%
Second compound 0.316 µM, first compound 0.00316 µM
  viability, T/C: 86.9%
Second compound 0.316 µM, first compound 0.01 µM
  viability, T/C: 99.3%
[5]
  viability, T/C: 74.8%
[6]
  viability, T/C: 97.3%
Second compound 1 µM, first compound 0.000316 µM
  viability, T/C: 112%
Second compound 1 µM, first compound 0.001 µM
  viability, T/C: 104%
Second compound 1 µM, first compound 0.00316 µM
  viability, T/C: 97.6%
Second compound 1 µM, first compound 0.01 µM
  viability, T/C: 84%
[7]
  viability, T/C: 91.6%
[8]
  viability, T/C: 104%
Second compound 3.16 µM, first compound 0.000316 µM
  viability, T/C: 91.6%
Second compound 3.16 µM, first compound 0.001 µM
  viability, T/C: 99.1%
Second compound 3.16 µM, first compound 0.00316 µM
  viability, T/C: 76.3%
Second compound 3.16 µM, first compound 0.01 µM
  viability, T/C: 95.8%
[9]
  viability, T/C: 75.3%
[10]
  viability, T/C: 83.7%
Second compound 10 µM, first compound 0.000316 µM
  viability, T/C: 60.7%
Second compound 10 µM, first compound 0.001 µM
  viability, T/C: 85.5%
Second compound 10 µM, first compound 0.00316 µM
  viability, T/C: 80%
Second compound 10 µM, first compound 0.01 µM
  viability, T/C: 59.6%
[11]
  viability, T/C: 74.4%
[12]
  viability, T/C: 74.4%

## O=C(c1cc(Cc2n[nH]c(=O)c3ccccc23)ccc1F)N1CCN(C(=O)C2CC2)CC1 + COc1cc2nc(C)nc(NC(C)c3cc(N)cc(C(F)(F)F)c3)c2cc1OC1CCOC1
Second compound 0.0316 µM
  IC50: > 10000 nM
Second compound 0.1 µM
  IC50: > 10000 nM
Second compound 0.316 µM
  IC50: > 10000 nM
Second compound 1 µM
  IC50: > 10000 nM
Second compound 3.16 µM
  IC50: > 10000 nM
Second compound 10 µM
  IC50: > 10000 nM
[1]
  viability, T/C: 104%
[2]
  viability, T/C: 108%
Second compound 0.0316 µM, first compound 0.316 µM
  viability, T/C: 102%
Second compound 0.0316 µM, first compound 1 µM
  viability, T/C: 94.2%
Second compound 0.0316 µM, first compound 3.16 µM
  viability, T/C: 89.7%
Second compound 0.0316 µM, first compound 10 µM
  viability, T/C: 99.3%
[3]
  viability, T/C: 108%
[4]
  viability, T/C: 101%
Second compound 0.1 µM, first compound 0.316 µM
  viability, T/C: 90.5%
Second compound 0.1 µM, first compound 1 µM
  viability, T/C: 89.5%
Second compound 0.1 µM, first compound 3.16 µM
  viability, T/C: 90.3%
Second compound 0.1 µM, first compound 10 µM
  viability, T/C: 83.9%
[5]
  viability, T/C: 93.8%
[6]
  viability, T/C: 92.9%
Second compound 0.316 µM, first compound 0.316 µM
  viability, T/C: 101%
Second compound 0.316 µM, first compound 1 µM
  viability, T/C: 93.8%
Second compound 0.316 µM, first compound 3.16 µM
  viability, T/C: 101%
Second compound 0.316 µM, first compound 10 µM
  viability, T/C: 115%
[7]
  viability, T/C: 86.5%
[8]
  viability, T/C: 115%
Second compound 1 µM, first compound 0.316 µM
  viability, T/C: 93.8%
Second compound 1 µM, first compound 1 µM
  viability, T/C: 88.8%
Second compound 1 µM, first compound 3.16 µM
  viability, T/C: 89.5%
Second compound 1 µM, first compound 10 µM
  viability, T/C: 93.2%
[9]
  viability, T/C: 75%
[10]
  viability, T/C: 101%
Second compound 3.16 µM, first compound 0.316 µM
  viability, T/C: 93%
Second compound 3.16 µM, first compound 1 µM
  viability, T/C: 82.2%
Second compound 3.16 µM, first compound 3.16 µM
  viability, T/C: 84.8%
Second compound 3.16 µM, first compound 10 µM
  viability, T/C: 101%
[11]
  viability, T/C: 72.3%
[12]
  viability, T/C: 76.5%
Second compound 10 µM, first compound 0.316 µM
  viability, T/C: 79.4%
Second compound 10 µM, first compound 1 µM
  viability, T/C: 68.2%
Second compound 10 µM, first compound 3.16 µM
  viability, T/C: 77.2%
Second compound 10 µM, first compound 10 µM
  viability, T/C: 63.2%
